Source: ChEMBL document CHEMBL3132744, “Structureactivity relationship studies of miniproteins targeting the androgen receptorcoactivator interaction” (Medchemcomm, 2013)
Square brackets hold non-standard residues; d marks the D form. Peptide text beside a SMILES is read from it. Phe(4-Cl) = N[C@@H](Cc1ccc(Cl)cc1)C(=O)O; Phe(2-Cl) = N[C@@H](Cc1ccccc1Cl)C(=O)O; Cha = N[C@@H](CC1CCCCC1)C(=O)O

Target: T1, Androgen receptor (Homo sapiens, UniProt P10275)
T1 sequence (P10275 whole entry): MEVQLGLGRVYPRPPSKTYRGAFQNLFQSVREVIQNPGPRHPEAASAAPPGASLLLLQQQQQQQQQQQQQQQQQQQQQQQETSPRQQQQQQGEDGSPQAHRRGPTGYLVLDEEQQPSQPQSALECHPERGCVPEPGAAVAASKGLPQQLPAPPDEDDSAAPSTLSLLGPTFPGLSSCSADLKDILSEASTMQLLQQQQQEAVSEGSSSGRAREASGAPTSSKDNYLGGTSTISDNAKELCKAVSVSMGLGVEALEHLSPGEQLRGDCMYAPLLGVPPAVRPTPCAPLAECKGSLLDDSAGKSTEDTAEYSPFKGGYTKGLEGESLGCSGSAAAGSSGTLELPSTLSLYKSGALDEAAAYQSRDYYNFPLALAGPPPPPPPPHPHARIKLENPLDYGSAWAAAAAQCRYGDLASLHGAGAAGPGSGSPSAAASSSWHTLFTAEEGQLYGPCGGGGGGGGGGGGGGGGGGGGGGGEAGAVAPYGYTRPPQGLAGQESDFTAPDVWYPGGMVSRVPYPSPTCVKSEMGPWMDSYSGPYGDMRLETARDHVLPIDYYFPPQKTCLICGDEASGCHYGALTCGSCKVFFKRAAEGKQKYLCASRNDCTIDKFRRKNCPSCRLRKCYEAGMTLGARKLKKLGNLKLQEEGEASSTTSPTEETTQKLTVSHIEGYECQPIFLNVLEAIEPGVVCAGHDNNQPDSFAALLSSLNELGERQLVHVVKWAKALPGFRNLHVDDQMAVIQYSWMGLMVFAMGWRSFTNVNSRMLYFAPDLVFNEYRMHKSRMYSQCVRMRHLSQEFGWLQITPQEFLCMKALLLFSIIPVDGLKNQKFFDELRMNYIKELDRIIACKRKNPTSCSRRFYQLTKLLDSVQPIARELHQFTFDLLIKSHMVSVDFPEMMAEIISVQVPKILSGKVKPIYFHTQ
Test: Displacement of fluorescein-CSSRFESLFAGEKESR from human androgen receptor-LBD after 1 hr by fluorescence polarization assay

| Ki [µM] | SMILES |
| --- | --- |
| 3 | CC(C)C[C@H](NC(=O)[C@H](CS)NC(=O)[C@H](CC(N)=O)NC(=O)[C@H](Cc1ccc(Cl)cc1)NC(=O)[C@H](Cc1ccc(O)cc1)NC(=O)[C@H](CS)NC(=O)[C@H](C)N)C(=O)N[C@@H](Cc1ccccc1)C(=O)N[C@@H](CCC(=O)O)C(=O)NCC(=O)N[C@@H](CC(N)=O)C(=O)N[C@@H](CC(=O)O)C(=O)N[C@@H](CCC(=O)O)C(=O)N[C@@H](CCC(=O)O)C(=O)N[C@H](C(=O)N[C@@H](CS)C(=O)N[C@@H](CCCCN)C(=O)N[C@@H](CCC(=O)O)C(=O)N[C@@H](Cc1c[nH]c2ccccc12)C(=O)N[C@@H](CS)C(=O)O)[C@@H](C)O (H-ACY[Phe(4-Cl)]NCLFEGNDEETCKEWC-OH) |
| 1.9 | CC[C@H](C)[C@H](NC(=O)[C@H](CS)NC(=O)[C@H](Cc1ccccc1)NC(=O)[C@H](CC(C)C)NC(=O)[C@H](CCC(=O)O)NC(=O)[C@H](CS)NC(=O)[C@H](Cc1ccccc1)NC(=O)[C@H](CCCNC(=N)N)NC(=O)[C@@H](N)CCCCN)C(=O)N[C@@H](CCC(N)=O)C(=O)NCC(=O)N[C@H](C(=O)NCC(=O)N[C@@H](CC(=O)O)C(=O)N[C@H](C(=O)N[C@@H](CCCCN)C(=O)N[C@@H](C)C(=O)N[C@@H](CS)C(=O)N[C@@H](CCC(=O)O)C(=O)N[C@@H](Cc1c[nH]c2ccccc12)C(=O)N[C@@H](C)C(=O)N[C@@H](CS)C(=O)N[C@@H](CCC(N)=O)C(=O)O)C(C)C)[C@@H](C)O (H-KRFCELFCIQGTGDVKACEWACQ-OH) |
| 10 | CC[C@H](C)[C@H](NC(=O)[C@H](CS)NC(=O)[C@H](Cc1ccccc1)NC(=O)[C@H](CC(C)C)NC(=O)[C@H](CCC(=O)O)NC(=O)[C@H](CS)NC(=O)[C@H](Cc1ccccc1)NC(=O)[C@H](CC(C)C)NC(=O)[C@@H](N)CC(N)=O)C(=O)N[C@@H](CCC(N)=O)C(=O)NCC(=O)N[C@H](C(=O)NCC(=O)N[C@@H](CC(=O)O)C(=O)N[C@H](C(=O)N[C@@H](CCCCN)C(=O)N[C@@H](C)C(=O)N[C@@H](CS)C(=O)N[C@@H](CCC(=O)O)C(=O)N[C@@H](Cc1c[nH]c2ccccc12)C(=O)N[C@@H](C)C(=O)N[C@@H](CS)C(=O)N[C@@H](CCC(N)=O)C(=O)O)C(C)C)[C@@H](C)O (H-NLFCELFCIQGTGDVKACEWACQ-OH) |
| 3.6 | CC(C)C[C@H](NC(=O)[C@H](CCC(=O)O)NC(=O)[C@H](CS)NC(=O)[C@H](Cc1ccccc1)NC(=O)[C@H](CCCNC(=N)N)NC(=O)[C@@H](N)CC(N)=O)C(=O)N[C@@H](Cc1ccccc1)C(=O)N[C@@H](CS)C(=O)N[C@@H](Cc1ccccc1)C(=O)N[C@@H](CCC(N)=O)C(=O)NCC(=O)N[C@H](C(=O)NCC(=O)N[C@@H](CC(=O)O)C(=O)N[C@H](C(=O)N[C@@H](CCCCN)C(=O)N[C@@H](C)C(=O)N[C@@H](CS)C(=O)N[C@@H](CCC(=O)O)C(=O)N[C@@H](Cc1c[nH]c2ccccc12)C(=O)N[C@@H](C)C(=O)N[C@@H](CS)C(=O)N[C@@H](CCC(N)=O)C(=O)O)C(C)C)[C@@H](C)O (H-NRFCELFCFQGTGDVKACEWACQ-OH) |
| 2.1 | CC[C@H](C)[C@H](NC(=O)[C@H](CS)NC(=O)[C@H](Cc1ccccc1)NC(=O)[C@H](CC(C)C)NC(=O)[C@H](CCC(=O)O)NC(=O)[C@H](CS)NC(=O)[C@H](Cc1ccccc1)NC(=O)[C@H](CCCNC(=N)N)NC(=O)[C@@H](N)CC(N)=O)C(=O)N[C@@H](CCC(=O)O)C(=O)NCC(=O)N[C@H](C(=O)NCC(=O)N[C@@H](CC(=O)O)C(=O)N[C@H](C(=O)N[C@@H](CCCCN)C(=O)N[C@@H](C)C(=O)N[C@@H](CS)C(=O)N[C@@H](CCC(=O)O)C(=O)N[C@@H](Cc1c[nH]c2ccccc12)C(=O)N[C@@H](C)C(=O)N[C@@H](CS)C(=O)N[C@@H](CCC(N)=O)C(=O)O)C(C)C)[C@@H](C)O (H-NRFCELFCIEGTGDVKACEWACQ-OH) |
| 2.1 | CC[C@H](C)[C@H](NC(=O)[C@H](CS)NC(=O)[C@H](Cc1ccccc1)NC(=O)[C@H](CC(C)C)NC(=O)[C@H](CCC(=O)O)NC(=O)[C@H](CS)NC(=O)[C@H](Cc1ccccc1)NC(=O)[C@H](CCCNC(=N)N)NC(=O)[C@@H](N)CC(N)=O)C(=O)N[C@@H](CCC(N)=O)C(=O)N[C@@H](CC(=O)O)C(=O)N[C@H](C(=O)NCC(=O)N[C@@H](CC(=O)O)C(=O)N[C@H](C(=O)N[C@@H](CCCCN)C(=O)N[C@@H](C)C(=O)N[C@@H](CS)C(=O)N[C@@H](CCC(=O)O)C(=O)N[C@@H](Cc1c[nH]c2ccccc12)C(=O)N[C@@H](C)C(=O)N[C@@H](CS)C(=O)N[C@@H](CCC(N)=O)C(=O)O)C(C)C)[C@@H](C)O (H-NRFCELFCIQDTGDVKACEWACQ-OH) |
| 3 | CC[C@H](C)[C@H](NC(=O)[C@H](CS)NC(=O)[C@H](Cc1ccccc1)NC(=O)[C@H](CC(C)C)NC(=O)[C@H](CCC(=O)O)NC(=O)[C@H](CS)NC(=O)[C@H](Cc1ccccc1)NC(=O)[C@H](CCCNC(=N)N)NC(=O)[C@@H](N)CC(N)=O)C(=O)N[C@@H](CCC(N)=O)C(=O)NCC(=O)N[C@H](C(=O)N[C@@H](CCC(=O)O)C(=O)N[C@@H](CC(=O)O)C(=O)N[C@H](C(=O)N[C@@H](CCCCN)C(=O)N[C@@H](C)C(=O)N[C@@H](CS)C(=O)N[C@@H](CCC(=O)O)C(=O)N[C@@H](Cc1c[nH]c2ccccc12)C(=O)N[C@@H](C)C(=O)N[C@@H](CS)C(=O)N[C@@H](CCC(N)=O)C(=O)O)C(C)C)[C@@H](C)O (H-NRFCELFCIQGTEDVKACEWACQ-OH) |
| 1.3 | CC[C@H](C)[C@H](NC(=O)[C@H](CS)NC(=O)[C@H](Cc1ccccc1)NC(=O)[C@H](CC(C)C)NC(=O)[C@H](CCC(=O)O)NC(=O)[C@H](CS)NC(=O)[C@H](Cc1ccccc1)NC(=O)[C@H](CCCNC(=N)N)NC(=O)[C@@H](N)CC(N)=O)C(=O)N[C@@H](CCC(N)=O)C(=O)NCC(=O)N[C@H](C(=O)NCC(=O)N[C@@H](CC(=O)O)C(=O)N[C@H](C(=O)N[C@@H](CCCCN)C(=O)N[C@@H](C)C(=O)N[C@@H](CS)C(=O)N[C@@H](CCC(=O)O)C(=O)N[C@@H](CCC(=O)O)C(=O)N[C@@H](C)C(=O)N[C@@H](CS)C(=O)N[C@@H](CCC(N)=O)C(=O)O)C(C)C)[C@@H](C)O (H-NRFCELFCIQGTGDVKACEEACQ-OH) |
| 4.1 | CC[C@H](C)[C@H](NC(=O)[C@H](CS)NC(=O)[C@H](Cc1ccccc1)NC(=O)[C@H](CC(C)C)NC(=O)[C@H](CCC(=O)O)NC(=O)[C@H](CS)NC(=O)[C@H](Cc1ccccc1)NC(=O)[C@H](CCCNC(=N)N)NC(=O)[C@@H](N)CC(N)=O)C(=O)N[C@@H](CCC(N)=O)C(=O)NCC(=O)N[C@H](C(=O)NCC(=O)N[C@@H](CC(=O)O)C(=O)N[C@H](C(=O)N[C@@H](CCCCN)C(=O)N[C@@H](C)C(=O)N[C@@H](CS)C(=O)N[C@@H](CCC(=O)O)C(=O)N[C@@H](Cc1c[nH]c2ccccc12)C(=O)N[C@@H](C)C(=O)N[C@@H](CS)C(=O)N[C@@H](CCC(N)=O)C(=O)O)C(C)C)[C@@H](C)O (H-NRFCELFCIQGTGDVKACEWACQ-OH) |
| 56 | CC[C@H](C)[C@H](NC(=O)[C@H](CS)NC(=O)[C@H](CC1CCCCC1)NC(=O)[C@H](CC(C)C)NC(=O)[C@H](CCC(=O)O)NC(=O)[C@H](CS)NC(=O)[C@H](Cc1ccccc1)NC(=O)[C@H](CCCNC(=N)N)NC(=O)[C@@H](N)CC(N)=O)C(=O)N[C@@H](CCC(N)=O)C(=O)NCC(=O)N[C@H](C(=O)NCC(=O)N[C@@H](CC(=O)O)C(=O)N[C@H](C(=O)N[C@@H](CCCCN)C(=O)N[C@@H](C)C(=O)N[C@@H](CS)C(=O)N[C@@H](CCC(=O)O)C(=O)N[C@@H](Cc1c[nH]c2ccccc12)C(=O)N[C@@H](C)C(=O)N[C@@H](CS)C(=O)N[C@@H](CCC(N)=O)C(=O)O)C(C)C)[C@@H](C)O (H-NRFCEL[Cha]CIQGTGDVKACEWACQ-OH) |
| 0.4 | CC[C@H](C)[C@H](NC(=O)[C@H](CS)NC(=O)[C@H](Cc1ccccc1Cl)NC(=O)[C@H](CC(C)C)NC(=O)[C@H](CCC(=O)O)NC(=O)[C@H](CS)NC(=O)[C@H](Cc1ccccc1)NC(=O)[C@H](CCCNC(=N)N)NC(=O)[C@@H](N)CC(N)=O)C(=O)N[C@@H](CCC(N)=O)C(=O)NCC(=O)N[C@H](C(=O)NCC(=O)N[C@@H](CC(=O)O)C(=O)N[C@H](C(=O)N[C@@H](CCCCN)C(=O)N[C@@H](C)C(=O)N[C@@H](CS)C(=O)N[C@@H](CCC(=O)O)C(=O)N[C@@H](Cc1c[nH]c2ccccc12)C(=O)N[C@@H](C)C(=O)N[C@@H](CS)C(=O)N[C@@H](CCC(N)=O)C(=O)O)C(C)C)[C@@H](C)O (H-NRFCEL[Phe(2-Cl)]CIQGTGDVKACEWACQ-OH) |
| 32 | CC[C@H](C)[C@H](NC(=O)[C@H](CS)NC(=O)[C@H](Cc1ccc(Cl)cc1)NC(=O)[C@H](CC(C)C)NC(=O)[C@H](CCC(=O)O)NC(=O)[C@H](CS)NC(=O)[C@H](Cc1ccccc1)NC(=O)[C@H](CCCNC(=N)N)NC(=O)[C@@H](N)CC(N)=O)C(=O)N[C@@H](CCC(N)=O)C(=O)NCC(=O)N[C@H](C(=O)NCC(=O)N[C@@H](CC(=O)O)C(=O)N[C@H](C(=O)N[C@@H](CCCCN)C(=O)N[C@@H](C)C(=O)N[C@@H](CS)C(=O)N[C@@H](CCC(=O)O)C(=O)N[C@@H](Cc1c[nH]c2ccccc12)C(=O)N[C@@H](C)C(=O)N[C@@H](CS)C(=O)N[C@@H](CCC(N)=O)C(=O)O)C(C)C)[C@@H](C)O (H-NRFCEL[Phe(4-Cl)]CIQGTGDVKACEWACQ-OH) |
